In patent publication US8722849B2, “Polypeptides” (Novo Nordisk A/S, priority 2011, dated 2014):
≈ marks a conversion by molar mass, not a printed value. Like-named read-outs stand apart in the source and are kept apart here. Starred links: 1 amine or outer side, 2 acyl side, 3 side chain; linkers in the order of their positions; H or OH if unused. Positions of bridges follow the written chain, without caps; N, C: chain ends. Residues, ends and D or L forms follow the SMILES beside them. *: point of attachment. C20 diacid = O=C(O)CCCCCCCCCCCCCCCCCCC(=O)*; γGlu = O=C(O)[C@H](CCC(=O)[*:2])N[*:1]

Key:
[1] = target: T1, human amylin receptor (amylin 3(a) receptor: human calcitonin receptor + RAMP-3) (Homo sapiens, UniProt O60896+P30988); assay: Assay (II)a functional CRE-luciferase assay, human amylin receptor; type: cell-based; conditions: Table 2; BHK amylin 3(a)-receptor/CRE-luc cells
T1 construct: expressed in transfected cells; host or cells: BHK570
T1 sequence (P30988 25-474): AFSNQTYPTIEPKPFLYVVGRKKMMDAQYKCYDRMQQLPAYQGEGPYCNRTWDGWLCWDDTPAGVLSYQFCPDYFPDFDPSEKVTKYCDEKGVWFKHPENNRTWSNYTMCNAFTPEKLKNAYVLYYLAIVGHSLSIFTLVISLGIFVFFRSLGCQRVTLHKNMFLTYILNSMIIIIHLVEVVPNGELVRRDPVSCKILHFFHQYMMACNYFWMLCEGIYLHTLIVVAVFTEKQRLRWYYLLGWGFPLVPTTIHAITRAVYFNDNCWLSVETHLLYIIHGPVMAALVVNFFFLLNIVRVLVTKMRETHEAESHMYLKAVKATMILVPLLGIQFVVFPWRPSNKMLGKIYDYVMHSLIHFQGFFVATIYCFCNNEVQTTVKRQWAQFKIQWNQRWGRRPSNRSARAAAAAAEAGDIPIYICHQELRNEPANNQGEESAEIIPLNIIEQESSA
T1 sequence (O60896 24-148 partner): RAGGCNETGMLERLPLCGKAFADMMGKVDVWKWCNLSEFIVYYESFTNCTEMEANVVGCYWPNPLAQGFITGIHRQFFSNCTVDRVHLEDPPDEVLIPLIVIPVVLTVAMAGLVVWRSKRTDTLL

[2] = target: T2, human calcitonin receptor (Homo sapiens, UniProt P30988); assay: Assay (II)a functional CRE-luciferase assay, human calcitonin receptor; type: cell-based; conditions: Table 7; human calcitonin (CTa) receptor
T2 construct: expressed in transfected cells; host or cells: BHK570
T2 sequence (P30988 25-474): T1 sequence (P30988 25-474)

[3] = Assay (III) ThT fibrillation assay for physical stability; type: physicochemical
How it was run: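 Freshly prepared formulations, pH-adjusted, with 1 μM ThT; four or eight replicates incubated at 37 °C under 960 rpm orbital shaking. Fluorescence (ex 444/em 485 nm) read every 20 min; […]. Peptide concentration measured by RP-HPLC before and after the run.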

[4] = Assay (IV) determination of solubility; type: physicochemical
How it was run: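 Polypeptide in water (~500 nmol/ml) mixed 1:1 with 100 mM glycylglycine (pH 3.0–5.0) or bistrispropane (pH 6.0–8.0) buffers. Held 18 hours at room temperature, then centrifuged. Polypeptide remaining in solution quantified by HPLC.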

[5] = bistrispropane buffer, pH 6, pH 6.0, read-out: Solubility pH 6.0
[6] = bistrispropane buffer, pH 6.5, pH 6.5, read-out: Solubility pH 6.5
[7] = bistrispropane buffer, pH 7, pH 7.0, 18 hours at room temperature, Table 3, read-out: Solubility pH 7.0
[8] = bistrispropane buffer, pH 7, pH 7.0, read-out: Solubility pH 7.0
[9] = bistrispropane buffer, pH 7.5, pH 7.5, read-out: Solubility pH 7.5
[10] = bistrispropane buffer, pH 8, pH 8.0, read-out: Solubility pH 8.0
[11] = glycylglycine buffer, pH 3, pH 3.0, read-out: Solubility pH 3.0
[12] = glycylglycine buffer, pH 4, pH 4.0, 18 hours at room temperature, Table 2, read-out: Solubility pH 4.0
[13] = glycylglycine buffer, pH 4, pH 4.0, read-out: Solubility pH 4.0
[14] = glycylglycine buffer, pH 5, pH 5.0, read-out: Solubility pH 5.0

Compound | EC50 [1] [nM] | EC50 [2] [nM] | ThT pH 4.0 lag time ([3]; ThT fibrillation assay) [h] | ThT pH 4.0 lag time (h) ([3]; ThT fibrillation assay) | solubility at 18 h [4, 5] [µM] | solubility at 18 h [4, 6] [µM] | solubility at 18 h [4, 7] [µM] | solubility at 18 h [4, 8] [µM] | solubility at 18 h [4, 9] [µM] | solubility at 18 h [4, 10] [µM] | solubility at 18 h [4, 11] [µM] | solubility at 18 h [4, 12] [µM] | solubility at 18 h [4, 13] [µM] | solubility at 18 h [4, 14] [µM] | further results
CC[C@H](C)[C@H](NC(=O)[C@@H]1CCCN1C(=O)CNC(=O)[C@H](Cc1ccccc1)NC(=O)[C@H](CC(N)=O)NC(=O)[C@H](CC(=O)O)NC(=O)[C@H](CO)NC(=O)[C@H](CO)NC(=O)[C@H](Cc1c[nH]cn1)NC(=O)[C@H](Cc1c[nH]cn1)NC(=O)[C@H](CC(C)C)NC(=O)[C@H](Cc1ccccc1)NC(=O)[C@H](CCC(=O)O)NC(=O)[C@H](C)NC(=O)[C@H](CC(C)C)NC(=O)[C@H](CCCNC(=N)N)NC(=O)[C@H](CCC(N)=O)NC(=O)[C@@H](NC(=O)[C@H](C)NC(=O)[C@@H]1CSSC[C@H](NC(=O)[C@H](CCCCN)NC(=O)CC[C@H](NC(=O)CCCCCCCCCCCCCCCCCCC(=O)O)C(=O)O)C(=O)N[C@@H](CC(N)=O)C(=O)N[C@@H]([C@@H](C)O)C(=O)N[C@@H](C)C(=O)N[C@@H]([C@@H](C)O)C(=O)N1)[C@@H](C)O)C(=O)N[C@@H](CC(C)C)C(=O)N1CCC[C@H]1C(=O)N1CCC[C@H]1C(=O)N[C@H](C(=O)N[C@@H](CC(N)=O)C(=O)N[C@H](C(=O)NCC(=O)N[C@@H](CO)C(=O)N[C@@H](Cc1c[nH]cn1)C(=O)N[C@H](C(=O)N[C@@H](Cc1ccc(O)cc1)C(N)=O)[C@@H](C)O)C(C)C)[C@@H](C)O [Example 128, N-alpha-[(S)-4-Carboxy-4-(19-carboxynonadecanoylamino)butyryl]-[Glu14,His17,Asp21,His35]-pramlintide] ({C20 diacid-γGlu}-KCNTATCATQRLAEFLHHSSDNFGPILPPTNVGSHTY-NH2; disulfide 2-7 (inferred); C-terminus assumed) | 0.291 | 0.266 | >45 | >45 |  |  |  |  |  |  |  |  |  |  | solubility at 18 h ([4]; pH 3.0, read-out: Solubility pH 3.0): > 200 µM; solubility at 18 h ([4]; pH 4.0, 18 hours at room temperature, Table 2, read-out: Solubility pH 4.0): > 200 µM; solubility at 18 h ([4]; pH 4.0, read-out: Solubility pH 4.0): >200 µM; solubility at 18 h ([4]; pH 5.0, read-out: Solubility pH 5.0): > 200 µM; solubility at 18 h ([4]; pH 6.0, read-out: Solubility pH 6.0): > 200 µM; solubility at 18 h ([4]; pH 6.5, read-out: Solubility pH 6.5): 114 µM (≈ 511 µg/mL); solubility at 18 h ([4]; pH 7.0, 18 hours at room temperature, Table 3, read-out: Solubility pH 7.0): 140 µM (≈ 627 µg/mL); solubility at 18 h ([4]; pH 7.0, read-out: Solubility pH 7.0): 140 µM (≈ 627 µg/mL); solubility at 18 h ([4]; pH 7.5, read-out: Solubility pH 7.5): > 200 µM; solubility at 18 h ([4]; pH 8.0, read-out: Solubility pH 8.0): > 200 µM
CC[C@H](C)[C@H](NC(=O)[C@@H]1CCCN1C(=O)CNC(=O)[C@H](Cc1ccccc1)NC(=O)[C@H](CC(N)=O)NC(=O)[C@H](CCC(N)=O)NC(=O)[C@H](CO)NC(=O)[C@H](CO)NC(=O)[C@H](Cc1c[nH]cn1)NC(=O)[C@H](Cc1c[nH]cn1)NC(=O)[C@H](CC(C)C)NC(=O)[C@H](Cc1ccccc1)NC(=O)[C@H](CCC(=O)O)NC(=O)[C@H](C)NC(=O)[C@H](CC(C)C)NC(=O)[C@H](CCCNC(=N)N)NC(=O)[C@H](CCC(N)=O)NC(=O)[C@@H](NC(=O)[C@H](C)NC(=O)[C@@H]1CSSC[C@H](NC(=O)[C@H](CCCCN)NC(=O)[C@H](CCC(=O)O)NC(=O)CC[C@H](NC(=O)CCCCCCCCCCCCCCCCCCC(=O)O)C(=O)O)C(=O)N[C@@H](CC(N)=O)C(=O)N[C@@H]([C@@H](C)O)C(=O)N[C@@H](C)C(=O)N[C@@H]([C@@H](C)O)C(=O)N1)[C@@H](C)O)C(=O)N[C@@H](CC(C)C)C(=O)N1CCC[C@H]1C(=O)N1CCC[C@H]1C(=O)N[C@H](C(=O)N[C@@H](CC(N)=O)C(=O)N[C@H](C(=O)NCC(=O)N[C@@H](CO)C(=O)N[C@@H](Cc1c[nH]cn1)C(=O)N[C@H](C(=O)N[C@@H](Cc1ccc(O)cc1)C(N)=O)[C@@H](C)O)C(C)C)[C@@H](C)O [Example 129, N-alpha-[(S)-4-Carboxy-4-(19-carboxynonadecanoylamino)butyryl]-Glu-[Glu14,His17,Gln21,His35]-pramlintide] ({C20 diacid-γGlu}-EKCNTATCATQRLAEFLHHSSQNFGPILPPTNVGSHTY-NH2; disulfide 3-8 (inferred); C-terminus assumed) | 0.391 | 0.247 |  | 24 | > 200 | 194 (≈ 897 µg/mL) | > 200 | > 200 | > 200 | > 200 | > 200 | > 200 | > 200 | > 200 | 
CC[C@H](C)[C@H](NC(=O)[C@@H]1CCCN1C(=O)CNC(=O)[C@H](Cc1ccccc1)NC(=O)[C@H](CC(N)=O)NC(=O)[C@H](CCC(N)=O)NC(=O)[C@H](CO)NC(=O)[C@H](CO)NC(=O)[C@H](Cc1c[nH]cn1)NC(=O)[C@H](Cc1c[nH]cn1)NC(=O)[C@H](CC(C)C)NC(=O)[C@H](Cc1ccccc1)NC(=O)[C@H](CCC(=O)O)NC(=O)[C@H](C)NC(=O)[C@H](CC(C)C)NC(=O)[C@H](CCCNC(=N)N)NC(=O)[C@H](CCC(N)=O)NC(=O)[C@@H](NC(=O)[C@H](C)NC(=O)[C@@H]1CSSC[C@H](NC(=O)[C@H](CCCCN)NC(=O)CC[C@H](NC(=O)CCCCCCCCCCCCCCCCCCC(=O)O)C(=O)O)C(=O)N[C@@H](CC(N)=O)C(=O)N[C@@H]([C@@H](C)O)C(=O)N[C@@H](C)C(=O)N[C@@H]([C@@H](C)O)C(=O)N1)[C@@H](C)O)C(=O)N[C@@H](CC(C)C)C(=O)N1CCC[C@H]1C(=O)N1CCC[C@H]1C(=O)N[C@H](C(=O)N[C@@H](CC(N)=O)C(=O)N[C@H](C(=O)NCC(=O)N[C@@H](CO)C(=O)N[C@@H](CC(N)=O)C(=O)N[C@H](C(=O)N1CCC[C@H]1C(N)=O)[C@@H](C)O)C(C)C)[C@@H](C)O [Example 130, N-alpha-[(S)-4-Carboxy-4-(19-carboxynonadecanoylamino)butyryl]-[Glu14,His17,Gln21,Pro37]-pramlintide] ({C20 diacid-γGlu}-KCNTATCATQRLAEFLHHSSQNFGPILPPTNVGSNTP-NH2; disulfide 2-7 (inferred)) | 0.0555 | 0.0315 | >45 | >45 | > 200 | > 200 | > 200 | > 200 | > 200 | > 200 | > 200 | > 200 | > 200 | > 200 | ThT pH 4.0 lag time ([3]; Table 8): >45 h; ThT pH 4.0 lag time ([3]; Table 9): >45 h; solubility at 18 h ([4]; bistrispropane buffer, pH 7, pH 7.0, Table 8, read-out: Solubility pH 7.0): > 200 µM; solubility at 18 h ([4]; bistrispropane buffer, pH 7, pH 7.0, Table 9, read-out: Solubility pH 7.0): > 200 µM; solubility at 18 h ([4]; bistrispropane buffer, pH 7.5, pH 7.5, Table 9, read-out: Solubility pH 7.5): > 200 µM
